The values below come from patent US20220095618A1, “HERBICIDAL COMPOSITIONS” (SYNGENTA CROP PROTECTION AG, priority 2019, published 2022).

Common to all, as to test: Post-emergence efficacy of compounds of Formula (I) (B1), glasshouse
What all share (format): in vivo

Experiment [1] concerns Amaranthus palmeri (AMAPA). The settings on record: Application Rate 500 g/Ha, evaluated after 13 days; for pest or weed control at 500 g/ha: Amaranthus palmeri, post-emergence, 312 h, read-out: Control of AMAPA after post-emergence application (100=total damage to plant; 0=no damage to plant). On the procedure: (§1) Seeds of a variety of test species were sown in standard Iaom-based soil in pots:— Ipomoea hederacea (IPOHE), Euphorbia heterophylla (EPHHL), Chenopodium album (CHEAL), Amaranthus palmeri (AMAPA), Lolium perenne (LOLPE), Digitaria sanguinalis (DIGSA), Eleusine indica (ELEIN), Echinochloa crus-galli (ECHCG), Setaria faberi (SETFA). After cultivation for 14 days (post-emergence) under controlled conditions in a glasshouse (at 24/16° C., day/night; 14 hours light; 65% humidity), the plants were sprayed with an aqueous spray solution derived from the dissolution of the technical active ingredient Formula (I) in a small amount of acetone and a special solvent and emulsifier mixture referred to as IF50 (11.12% Emulsogen EL360 TM+44.44% N-methylpyrrolidone+44.44% Dowanol DPM glycol ether), to create a 50 g/I solution which was then diluted to required concentration using 0.25% or 1% Empicol ESC70 (Sodium lauryl ether sulphate)+1% ammonium sulphate as diluent. The delivery of the aqueous spray solution was via a laboratory track sprayer which delivered the aqueous spray composition at a rate of 200 litres per hectare, using a flat fan nozzle (Teejet 11002VS) and an application volume of 200 litre/ha (at 2 bar).
(§2) The test plants were then grown in a glasshouse under controlled conditions (at 24/16° C., day/night; 14 hours light; 65% humidity) and watered twice daily. After 13 days the test was evaluated (100=total damage to plant; 0=no damage to plant).

Experiment [2] has as its system Chenopodium album (CHEAL). As to conditions: Application Rate 500 g/Ha, evaluated after 13 days; for pest or weed control at 500 g/ha: Chenopodium album, post-emergence, 312 h, read-out: Control of CHEAL after post-emergence application (100=total damage to plant; 0=no damage to plant). On the procedure:
as §1, §2

Experiment [3] has as its system Digitaria sanguinalis (DIGSA). As to conditions: Application Rate 500 g/Ha, evaluated after 13 days; for pest or weed control at 500 g/ha: Digitaria sanguinalis, post-emergence, 312 h, read-out: Control of DIGSA after post-emergence application (100=total damage to plant; 0=no damage to plant). The protocol:
as §1, §2

Experiment [4] deals with Echinochloa crus-galli (ECHCG). The settings on record: Application Rate 500 g/Ha, evaluated after 13 days; for pest or weed control at 500 g/ha: Echinochloa crus-galli, post-emergence, 312 h, read-out: Control of ECHCG after post-emergence application (100=total damage to plant; 0=no damage to plant). The protocol: as §1, §2
In another experiment the test system is Eleusine indica (ELEIN). The settings on record: Application Rate 500 g/Ha, evaluated after 13 days; for pest or weed control at 500 g/ha: Eleusine indica, post-emergence, 312 h, read-out: Control of ELEIN after post-emergence application (100=total damage to plant; 0=no damage to plant). The protocol:
as §1, §2

The test system of experiment [5] is Euphorbia heterophylla (EPHHL). The settings on record: Application Rate 500 g/Ha, evaluated after 13 days; for pest or weed control at 500 g/ha: Euphorbia heterophylla, post-emergence, 312 h, read-out: Control of EPHHL after post-emergence application (100=total damage to plant; 0=no damage to plant). The protocol: as §1, §2
Experiment [6] concerns Ipomoea hederacea (IPOHE). The settings on record: Application Rate 500 g/Ha, evaluated after 13 days; for pest or weed control at 500 g/ha: Ipomoea hederacea, post-emergence, 312 h, read-out: Control of IPOHE after post-emergence application (100=total damage to plant; 0=no damage to plant). On the procedure: as §1, §2
The test system of another experiment is Lolium perenne (LOLPE). As to conditions: Application Rate 500 g/Ha, evaluated after 13 days; for pest or weed control at 500 g/ha: Lolium perenne, post-emergence, 312 h, read-out: Control of LOLPE after post-emergence application (100=total damage to plant; 0=no damage to plant). The protocol:
as §1, §2

Another experiment deals with Setaria faberi (SETFA). The settings on record: Application Rate 500 g/Ha, evaluated after 13 days; for pest or weed control at 500 g/ha: Setaria faberi, post-emergence, 312 h, read-out: Control of SETFA after post-emergence application (100=total damage to plant; 0=no damage to plant). On the procedure:
as §1, §2

Each structure is given as a SMILES string.

On to `O=S(=O)([O-])CC[n+]1ccc(-c2ncccn2)cn1` [Compound 1.001, 2-(4-pyrimidin-2-ylpyridazin-1-ium-1-yl)ethanesulfonate], for which the pest or weed control at 500 g/ha in experiment [1] amounted to 100%; in [2], 100%; in experiment [3], 100%; in experiment [4] it was 70%; in the experiment with Eleusine indica (ELEIN) it was 100%; in experiment [5], 100%. For the same compound, the pest or weed control at 500 g/ha in [6] amounted to 100%; in the experiment with Lolium perenne (LOLPE), 70%; in the experiment with Setaria faberi (SETFA), 100%.

Take `O=S(=O)([O-])CC[n+]1ccc(-c2cccnn2)cn1` [Compound 1.002, 2-(4-pyridazin-3-ylpyridazin-1-ium-1-yl)ethanesulfonate]: in [1], the “Control of AMAPA after post-emergence application (100=total damage to plant; 0=no damage to plant)” value is recorded as 100. In addition, the “Control of CHEAL after post-emergence application (100=total damage to plant; 0=no damage to plant)” value in experiment [2] is reported as 100. For the same compound, in experiment [3], the “Control of DIGSA after post-emergence application (100=total damage to plant; 0=no damage to plant)” value stood at 100. Moreover, the “Control of ECHCG after post-emergence application (100=total damage to plant; 0=no damage to plant)” value in [4] is listed as 100. For the same compound, the “Control of ELEIN after post-emergence application (100=total damage to plant; 0=no damage to plant)” value in the experiment on Eleusine indica (ELEIN) came out at 100. Moreover, the “Control of EPHHL after post-emergence application (100=total damage to plant; 0=no damage to plant)” value in experiment [5] is 100. Further, the “Control of IPOHE after post-emergence application (100=total damage to plant; 0=no damage to plant)” value in experiment [6] is 40. Also, the “Control of LOLPE after post-emergence application (100=total damage to plant; 0=no damage to plant)” value with Lolium perenne (LOLPE) stood at 100. The “Control of SETFA after post-emergence application (100=total damage to plant; 0=no damage to plant)” value in the experiment with Setaria faberi (SETFA) is on record as 90.

In the case of `O=S(=O)([O-])CCC[n+]1ccc(-c2ncccn2)cn1` [Compound 1.003, 3-(4-pyrimidin-2-ylpyridazin-1-ium-1-yl)propane-1-sulfonate], the pest or weed control at 500 g/ha was 100% in [1]; 100% in experiment [2]; 100% in [3]; 80% in experiment [4]; 100% with Eleusine indica (ELEIN); 100% in experiment [5]. For the same compound, the pest or weed control at 500 g/ha in experiment [6] was found to be 60%; with Lolium perenne (LOLPE) it was 60%; in the experiment on Setaria faberi (SETFA), 100%.

Turning to `Nc1ccnc(-c2cc[n+](CCS(=O)(=O)O)nc2)n1` [Compound 1.008], the pest or weed control at 500 g/ha was determined as 100% in [2]; 100% in [3]; 100% in [4]; 100% with Eleusine indica (ELEIN); 80% in experiment [5]; 40% in experiment [6]. Besides, the pest or weed control at 500 g/ha was determined as 60% in the experiment with Lolium perenne (LOLPE) and 100% in the experiment with Setaria faberi (SETFA).

Turning to `Cc1cnc(-c2cc[n+](CCS(=O)(=O)[O-])nc2)nc1` [Compound 1.009], the pest or weed control at 500 g/ha in experiment [2] is 100%; in [3], 100%; in experiment [4] it was 100%; in the experiment on Eleusine indica (ELEIN), 100%; in [5], 70%; in experiment [6], 30%. The pest or weed control at 500 g/ha in the experiment on Lolium perenne (LOLPE) was 80%; in the experiment with Setaria faberi (SETFA), 100%.

As to `O=C(O)CC[n+]1ccc(-c2ncccn2)cn1.[Cl-]` [Compound 1.010, 3-(4-pyrimidin-2-ylpyridazin-1-ium-1-yl)propanoic acid chloride], the pest or weed control at 500 g/ha (in experiment [2]; in [3]; in [4]; in the experiment on Eleusine indica (ELEIN); in [5]; in the experiment with Setaria faberi (SETFA)) was 100% each time. The “Control of IPOHE after post-emergence application (100=total damage to plant; 0=no damage to plant)” value in [6] is recorded as 40. In the experiment on Lolium perenne (LOLPE), the “Control of LOLPE after post-emergence application (100=total damage to plant; 0=no damage to plant)” value was 90.

For the compound `Cc1ccc(-c2cc[n+](CCS(=O)(=O)[O-])nc2)nn1` [Compound 1.014], the pest or weed control at 500 g/ha was 100% in experiment [1]; 100% in experiment [2]; 100% in [3]; 80% in [4]; 90% with Eleusine indica (ELEIN); 100% in experiment [5]. For the same compound, the pest or weed control at 500 g/ha in the experiment on Lolium perenne (LOLPE) came to 90%; in the experiment with Setaria faberi (SETFA), 100%.

With `Cc1ccnc(-c2cc[n+](CCC(=O)[O-])nc2)n1` [Compound 1.015], the pest or weed control at 500 g/ha stood at 100% in experiment [2]; 100% in experiment [3]; 100% in experiment [4]; 100% in the experiment with Eleusine indica (ELEIN); 80% in [5]; 30% in experiment [6]. Further, the figures for the pest or weed control at 500 g/ha in the experiment on Lolium perenne (LOLPE) and in the experiment on Setaria faberi (SETFA) were 80% and 100%, respectively.

With `Nc1ccnc(-c2cc[n+](CCC(=O)O)nc2)n1` [Compound 1.016], the pest or weed control at 500 g/ha stood at 90% in experiment [2]; 100% in experiment [3]; 100% in [4]; 100% in the experiment on Eleusine indica (ELEIN); 90% in experiment [5]; 30% in experiment [6]. The pest or weed control at 500 g/ha came out at 70% in the experiment on Lolium perenne (LOLPE) and 100% in the experiment on Setaria faberi (SETFA).

Turning to `Cc1cc(C)nc(-c2cc[n+](CCC(=O)[O-])nc2)n1` [Compound 1.017], the pest or weed control at 500 g/ha in experiment [2] was 100%; in [3] it was 100%; in [4] it was 70%; in the experiment with Eleusine indica (ELEIN) it was 100%; in experiment [5] it was 80%; in experiment [6] it was 50%. For the same compound, the values for the pest or weed control at 500 g/ha with Lolium perenne (LOLPE) and with Setaria faberi (SETFA) were 60% and 100%, respectively.

As for `COc1cc(-c2cc[n+](CCCS(=O)(=O)[O-])nc2)ncn1` [Compound 1.019], the pest or weed control at 500 g/ha in experiment [2] came out at 100%; in [3], 100%; in [4] it was 70%; in the experiment on Eleusine indica (ELEIN), 90%; in [5], 100%; in experiment [6], 60%. For the same compound, the pest or weed control at 500 g/ha with Lolium perenne (LOLPE) came to 30%; in the experiment with Setaria faberi (SETFA), 100%.

`O=C(O)CC[n+]1ccc(-c2ncccn2)cn1.O=C([O-])C(F)(F)F` [Compound 1.023, 3-(4-pyrimidin-2-ylpyridazin-1-ium-1-yl)propanoic acid 2,2,2-trifluoroacetate]: the “Control of AMAPA after post-emergence application (100=total damage to plant; 0=no damage to plant)” value in experiment [1] worked out at 100. Further, in experiment [2], the “Control of CHEAL after post-emergence application (100=total damage to plant; 0=no damage to plant)” value is recorded as 80. The “Control of DIGSA after post-emergence application (100=total damage to plant; 0=no damage to plant)” value in experiment [3] was found to be 100. The “Control of ECHCG after post-emergence application (100=total damage to plant; 0=no damage to plant)” value in experiment [4] was 100. In addition, the “Control of ELEIN after post-emergence application (100=total damage to plant; 0=no damage to plant)” value in the experiment on Eleusine indica (ELEIN) is 100. Also, in experiment [5], the “Control of EPHHL after post-emergence application (100=total damage to plant; 0=no damage to plant)” value is given as 100. Also, the “Control of IPOHE after post-emergence application (100=total damage to plant; 0=no damage to plant)” value in [6] is reported as 30. The “Control of SETFA after post-emergence application (100=total damage to plant; 0=no damage to plant)” value in the experiment with Setaria faberi (SETFA) came out at 100.
